# Assay results as given in patent US10093675B2, “6,8-disubstituted-9-(heterocyclyl)purines, compositions containing these derivatives and their use in cosmetic and medicinal applications” (USTAV EXPERIMENTALNI BOTANIKY AV CR, V.V.I., priority 2014, dated 2018).
# Like-named read-outs stand apart in the source and are kept apart here.
# Columns and labels:
# [1] = tested on: cytokinin-dependent tobacco callus Nicotiana tabacum L. cv. Wisconsin 38; test: Plant cell division: growth of cytokinin-dependent tobacco callus; type: cell-based; details: for Activity (%); (s.d.): relative activity at concentration with highest activity, 10^−6 M kinetin set at 100%; for Concentration with highest activity (mol/l): tobacco callus fresh weight increase after four weeks, tested 10^−8 M to 10^−4 M
# [2] = tested on: osteosarcoma cell line HOS; test: In vitro cytotoxic activity (Calcein AM), HOS; type: cell-based, human; details: 72 hours, read-out: Cell line tested/IC50 (μmol/L) HOS
# Text: (§1) Because toxic compounds negatively influence metabolic processes of cells, many standard cytotoxicity assays are based on measurement of metabolisation rate of various artificial substrates. Resulting product is then quantified, for example, by means of spectrometry. The assays can be easily modified for use in 96-well plates. For evaluation of cytotoxicity of the […] of this invention, a microtiter assay based on quantification of metabolisation of Calcein AM was used. The assay is widely used in drug screening programs and in chemosensitivity testing. In live cells, Calcein AM is enzymatically hydrolysed and accumulation of resulting calcein is manifested by green fluorescence.
# (§2) The following human cell lines were used for routine screening of the compounds: normal diploid fibroblasts BJ, T-lymphoblastic leukemia cell line CEM, promyelocytic leukemia cell line HL-60, erytroid leukemia cell line K-562, breast carcinoma cell line MCF-7, osteosarcoma cell line HOS and melanoma cell line G-361. The cells were maintained in Nunc/Corning 80 cm^2 plastic tissue culture flasks and cultured in cell culture medium (DMEM with 5 g/l glucose, 2 mM glutamine, 100 U/ml penicillin, 100 mmg/ml streptomycin, 10% fetal calf serum and sodium bicarbonate). The cell suspensions were prepared and diluted according to the particular cell type and the expected target cell density (2.500-30.000 cells per well based on cell growth characteristics) and pipetted (80 μl) into 96-well plates. Inoculates were allowed a pre-incubation period of 24 hours at 37° C. and 5% CO2 for stabilization. Tested compound was added in total volume of 20 μl of water at time zero. Usually, test compound was evaluated at six 3-fold dilutions. In routine testing, the highest concentration tested was 100 μM, but it could have been adjusted because of limited solubility of a compound. All drug concentrations were tested in triplicates.
# (§3) Incubations of cells with the test compounds lasted for 72 hours at 37° C., in 5% CO2 atmosphere and 100% humidity. At the end of incubation period Calcein AM in PBS was added into final concentration of 1 μg/ml. After another 1 hour of incubation fluorescence (FD) was measured with the Labsystem FIA Reader Fluoroscan Ascent (UK). Growth inhibition (GI) was estimated using the following equitation: GI=(mean FDdrug exposed wells−mean FDblank)/(mean FDcontrol wells−mean FDblank)×100%. The GI50 value, the drug concentration causing 50% reduction of Calcein AM conversion, was calculated from the obtained dose response curves.
# melanoma cell line G-361 = test: In vitro cytotoxic activity (Calcein AM), G-361; type: cell-based, human; details: read-out: Cell line tested/IC50 (μmol/L) G-361
# Text: as §1, §2, §3
# [3] = tested on: Human diploid fibroblast BJ; test: In vitro cytotoxic activity (MTT); type: cell-based; details: 72 hours incubation; concentration causing 20% decrease in mitochondrial dehydrogenase activity
# Method: MTT (metabolic tetrazolium toxicity) assay is a standard colorimetric assay for evaluation of cytotoxicity. Mitochondrial dehydrogenase activity converts yellow MTT into violet formazan which is measured by means of spectrometry.
# Human diploid fibroblast BJ (passage 18-22) were seeded into 96-well plate (5.000 cells per well). After 6 hours cultivation medium (DMEM with 5 g/l glucose, 2 mM glutamine, 100 U/ml penicillin, 100 mmg/ml streptomycin, 10% fetal calf serum and sodium bicarbonate) was replaced with the cultivation medium containing test compounds in concentration range of 0-200 µM. Highest concentration was adjusted if the solubility of the compound was limiting. Every concentration was tested in pentaplicate. MTT was added to the cells after 72 hours incubation (final concentration 0.5 mg/ml) and incubation continued for another 3 hours. MTT was solubilised by DMSO and absorbance at 570 nm was measured. Growth inhibition (GI) was estimated using the following equitation: GI=(mean A drug exposed wells−mean Ablank/mean Acontrol wells−mean Ablank)×100%. The GI20 value, the drug concentration causing 20% decrease in mitochondrial dehydrogenase activity, was calculated from the obtained dose response curves.
# [4] = tested on: breast carcinoma cell line MCF-7; test: In vitro cytotoxic activity (Calcein AM), MCF-7; type: cell-based, human; details: read-out: Cell line tested/IC50 (μmol/L) MCF7
# Text: as §1, §2, §3
# [5] = tested on: T-lymphoblastic leukemia cell line CEM; test: In vitro cytotoxic activity (Calcein AM), CEM; type: cell-based, human; details: 72 hours, read-out: Cell line tested/IC50 (μmol/L) CEM
# Text: as §1, §2, §3
# [6] = tested on: normal diploid fibroblasts BJ; test: In vitro cytotoxic activity (Calcein AM), BJ; type: cell-based, human; details: 72 hours, read-out: Cell line tested/IC50 (μmol/L) BJ
# Text: as §1, §2, §3
# [7] = tested on: excised wheat leaf tips (Triticum aestivum cv. Hereward); test: Senescence inhibition on winter wheat leaf segments (retention of chlorophyll); type: in vivo; details: 10^−4 mol/L; 96 hours in the dark; activity of kinetin set at 100%
# Outline: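 First-leaf tips from 7-day-old wheat seedlings stood with their bases in test solution for 96 h in the dark at 25° C. Chlorophyll was then extracted in hot 80% ethanol and read at 665 nm. Activity at each compound's best concentration is relative to 10^−4 M kinetin (100%), as means of five replicates.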
# [8] = tested on: detached leaves of Triticum aestivum cv. Hereward; test: Membrane lipid peroxidation (MDA, TBA method) in detached wheat leaves during dark senescence; type: in vivo; details: four days in the dark, Control 18.9 (±2.2)
# Method: A typical symptom associated with senescence as a direct consequence of increased reactive oxygen species is lipid peroxidation. Therefore the levels of MDA, a decomposition product of lipid peroxidation, were measured in detached wheat leaves that were exposed to the prepared novel derivatives and kinetin for four days in the dark as described in Example 8. MDA levels were measured using a thiobarbituric acid (TBA) method. In detail, 100 mg of fresh plant material was homogenized by high speed shaking in a ball mill (MM301, Retsch, Germany) with 1 mL of 80% methanol. The crude extract was centrifuged at 10,000×g for 5 min, and 100 μL aliquot of supernatant was vortexed with 100 μL of 0.5% (w/v) TBA containing 0.1% (w/v) trichloroacetic acid, and the resulting solution was then incubated for 30 min at 95° C. The samples were quickly cooled on ice and recentrifuged for 5 min at 1000×g. The absorbance of supernatant was measured at 532 nm with background subtraction at 600 nm and the amount of MDA-TBA complex was calculated from the coefficient of absorbance 155 mM^−1cm^−1.
# Seeds of winter wheat, Triticum aestivum cv. Hereward, were washed under running water for 24 hours and then sown on vermiculite soaked with Knop's solution. They were placed in the grown chamber at 25° C. with a 16/8 hours light period at […]. After 7 days, the first leaf was fully developed and the second leaf had started to grow. A tip section of the first leaf, approximately 35 mm long, was removed from 5 seedlings and trimmed slightly to a combined weight of 100 mg. The basal ends of the five leaf tips were placed in the wells of a microtiter polystyrene plate containing […] of a cytokinin solution each. The entire plate was inserted into a plastic box lined with paper tissues soaked in distilled water to prevent leaf sections from drying out. After 96 hours incubation in the dark at 25° C., the leaves were removed and chlorophyll extracted by heating at 80 C for 10 min in 5 ml of 80% ethanol (v/v). The sample volume was then restored to 5 ml by the addition of 80% ethanol (v/v). The absorbance of the extract was recorded at 665 nm. In addition, chlorophyll extracts from fresh leaves and leaf tips incubated in deionized water were measured. From the obtained data, the concentration with highest activity was selected for each compound tested. Relative activity of the compound at this concentration was calculated (see Table 6 below). The activity obtained for 10^−4 M kinetin (Kin) was set as 100%. The values shown are means of five replicates and the whole experiment was repeated twice.
# [9] = tested on: erytroid leukemia cell line K-562; test: In vitro cytotoxic activity (Calcein AM), K-562; type: cell-based, human; details: read-out: Cell line tested/IC50 (μmol/L) K-562
# Text: as §1, §2, §3
# [10] = Radical scavenging activity determined by ORAC (Oxygen Radical Absorbance Capacity); type: biochemical; details: Mean ± SD (n = 3); net area under the curve relative to trolox, equimolar basis
# Method: The ability of compounds to scavenge free radicals in vitro was determined by Oxygen Radical Absorbance Capacity (ORAC) method. Fluorescein (100 μL, […]) and 25 μL of compound solution were added into each working well in a 96-well microplate preincubated at 37° C. Thereafter, 25 μL of 250 mM AAPH was quickly added, microplate was shaken for 5 s and the fluorescence (Ex. 485 nm, Em. 510 nm) was read every 3 min over 90 min by using microplate reader Infinite 200 (TECAN, Switzerland). The net area under the curve was used to express antioxidant activity relative to trolox which was used as a standard.
# [11] = tested on: human diploid fibroblasts (HDF cells; HDF25, HDF45, HDF80); test: Inhibition of human cell aging: senescent cells by beta-galactosidase staining; type: cell-based
# Method: In this example, human diploid fibroblasts (HDF cells of various passage levels: passage 25—designated HDF25; passage 45—designated HDF45; passage 80—designated HDF80) were stained for beta-galactosidase activity. The medium used for the cell cultivation was removed the cells were washed twice in […], and fixed in 2-3 ml of fixing solution comprised of a 2% formaldehyde and 0.2% glutaraldehyde in PBS. The cells were incubated at room temperature for 5 minutes, and then washed twice with PBS. The cells were subsequently incubated at 37° C. […] In this experiment, senescent cells, but no other cells were stained blue due to the action of beta-galactosidase on the substrate.
SMILES,Activity (%); (s.d.) [1],GI20 [3] [µM],"Activity (%) (s.d.), retention of chlorophyll [7]",MDA (nmol/g FW) [8],ORAC (compound/trolox ratio) [10],also measured
"C/C(=C\CNc1ncnc2c1nc(Cl)n2C1CCCCO1)CO (stereo not drawn) [Compound 5, (E)-8-Chloro-6-(4-hydroxy-3-methylbut-2-en-1-ylamino)-9-(tetrahydropyran-2-yl)-9H-purine]",124 (±6) %,>100,118 (±5) %,13.2 (±1.5) nmol/g FW,,"IC50 ([2]; Homo sapiens): > 50 µmol/L; IC50 (melanoma cell line G-361; Homo sapiens, G-361, 72 hours): > 50 µmol/L; IC50 ([4]; Homo sapiens, MCF7, 72 hours): > 50 µmol/L; IC50 ([5]; Homo sapiens): > 50 µmol/L; IC50 ([6]; Homo sapiens, Fibroblast): > 50 µmol/L; IC50 ([9]; Homo sapiens, K562, 72 hours): > 50 µmol/L"
Oc1cccc(CNc2ncnc3c2nc(Cl)n3C2CCCCO2)c1 (stereo not drawn) [Compound 9],108 (±3) %,>100,115 (±4) %,12.4 (±1.3) nmol/g FW,,Concentration with highest activity (mol/l) [1]: 10^−6-10^−4 mol/l; IC50 [2]: > 50 µmol/L; IC50 (melanoma cell line G-361; 72 hours): > 50 µmol/L; IC50 ([4]; 72 hours): > 50 µmol/L; IC50 [5]: > 50 µmol/L; IC50 [6]: > 50 µmol/L; IC50 ([9]; 72 hours): > 50 µmol/L
Oc1cccc(CNc2ncnc3c2nc(Br)n3C2CCCCO2)c1 (stereo not drawn) [Compound 29],112 (±3) %,>100,117 (±2) %,12.3 (±1.4) nmol/g FW,,Concentration with highest activity (mol/l) [1]: 10^−6-10^−4 mol/l; IC50 [2]: > 50 µmol/L; IC50 (melanoma cell line G-361; 72 hours): > 50 µmol/L; IC50 ([4]; 72 hours): > 50 µmol/L; IC50 [5]: > 50 µmol/L; IC50 [6]: > 50 µmol/L; IC50 ([9]; 72 hours): > 50 µmol/L
"Ic1nc2c(NCc3ccccc3)ncnc2n1C1CCCCO1 (stereo not drawn) [Compound 46, 8-Iodo-6-benzylamino-9-(tetrahydropyran-2-yl)-9H-purine]",,,,10.9 (±1.0) nmol/g FW,1.4 ± 0.0,
"CN(C)c1nc2c(NCc3ccco3)ncnc2n1C1CCCCO1 (stereo not drawn) [Compound 80, 6-Furfurylamino-8-dimethylamino-9-(tetrahydropyran-2-yl)-9H-purine]",,,,11.3 (±0.9) nmol/g FW,2.2 ± 0.1,
"C=CCNc1nc2c(NCc3ccco3)ncnc2n1C1CCCCO1 (stereo not drawn) [Compound 100, 8-Allylamino-6-furfurylamino-9-(tetrahydropyran-2-yl)-9H-purine]",,,,10.2 (±1.1) nmol/g FW,32.4 ± 3.2,
"Nc1nc2c(NCc3ccco3)ncnc2n1C1CCCCO1 (stereo not drawn) [Compound 102, 6-furfurylamino-8-amino-9-(tetrahydropyran-2-yl)-9H-purine]",,,,10.4 (±0.9) nmol/g FW,4.5 ± 0.1,
"CC(C)=CCNc1nc(Cl)nc2c1nc(N)n2C1CCCCO1 (stereo not drawn) [Compound 107, 8-Amino-6-(3-methylbut-2-en-1-ylamino)-chloro-9-(tetrahydropyran-2-yl)-9H-purine]",,,,10.5 (±0.5) nmol/g FW,24.4 ± 1.5,
"NCCNc1nc2c(NCc3ccco3)ncnc2n1C1CCCCO1 (stereo not drawn) [Compound 170, 8-(2-Aminoethylamino)-6-furfurylamino-9-(tetrahydropyran-2-yl)-9H-purine]",,,,10.4 (±0.7) nmol/g FW,181.3 ± 5.2,
"c1coc(CNc2ncnc3c2ncn3C2CCCCO2)c1 (stereo not drawn) [KTHP, kinetin-9-tetrahydropyranyl, reference compound]",,,,,0.6 ± 0.1,"SENESCENT CELLS (%) HDF25 ([11]; human diploid fibroblasts passage 25, beta-galactosidase staining): 3%; SENESCENT CELLS (%) HDF45 ([11]; human diploid fibroblasts passage 45, beta-galactosidase staining): 4%; SENESCENT CELLS (%) HDF80 ([11]; human diploid fibroblasts passage 80, beta-galactosidase staining): 26%"
